# Test results published in ChEMBL document CHEMBL1149467, “From genome to drug lead: identification of a small-molecule inhibitor of the SARS virus” (Bioorg Med Chem Lett, 2006).
# Experiments:
# [1] = system: SARS-CoV; assay: Inhibition of human SARS-CoV Toronto-2 at 300 uM in a cell based assay; format: functional; settings: Severe acute respiratory syndrome-related coronavirus
# [2] = system: SARS-CoV; assay: Inhibition of human SARS-CoV Toronto-2 in a cell based assay; format: functional, organism-based; settings: Severe acute respiratory syndrome-related coronavirus
Structure (SMILES),inhibition at 300 µM [1],EC50 [2]
O=C(O)c1ccc(NC(=O)c2cccc3c2C2=C(CCCC2)C3=O)cc1,25%,–
O=C(O)c1ccc(/N=C/c2c(O)ccc3oc4c(c23)CCCC4)cc1,–,23 µM
